Source: PMC12320245 (International Journal of Biological Sciences, 2025)

Assays:
[1] = system: cultured cortical astrocytes; assay: Intracellular cAMP levels in cultured astrocytes; format: cell-based; settings: 1-hour treatment, 0.1 to 10 µM, particularly at 1 μM and 10 μM
[2] = system: primary hippocampal neurons; assay: Scratch injury: cell viability analysis; format: cell-based, rat; settings: scratched neurons, 24 hours post-scratch, 10 μM AMX
Protocol: Primary hippocampal neurons were obtained from embryonic day 18 (E18) Sprague-Dawley rat embryos. Pregnant rats were anesthetized using 2-3% isoflurane in a gas mixture of 70% nitrous oxide and 30% oxygen. Following euthanasia, the hippocampi were carefully dissected, minced, and enzymatically dissociated using TrypLE Express (Gibco, NY, USA) for 10 minutes at 37°C. The tissue was further mechanically dissociated using fire-polished glass pipettes, and the resulting cell suspension was filtered through a 70 μm cell strainer to remove debris. Neurons were seeded at a density of 3 × 10^5 cells per well in 24-well plates pre-coated with poly-L-lysine (Sigma-Aldrich, Saint Louis, MO, USA). Cells were maintained in neurobasal medium supplemented with B-27 (Thermo Fisher Scientific, Waltham, MA, USA), GlutaMAX (Gibco), and penicillin-streptomycin. The cultures were incubated at 37.5°C in a humidified atmosphere containing 5% CO₂. […]
A scratch injury model was used to mimic TBI in vitro. […] After the treatment period, neuronal damage and recovery were assessed using appropriate evaluation methods.
[…] After incubation, absorbance was measured at 450 nm using a microplate reader (Spectramax, Molecular Devices Co., CA, USA). […]

[3] = system: hippocampus of TBI rats; assay: Controlled cortical impact TBI: hippocampal immunofluorescence; format: in vivo, rat
Protocol: (§1) This study used male Sprague-Dawley rats weighing 300-350 g and aged 8 weeks, obtained from DBL Co. (Chungcheongbuk-do, Republic of Korea). The rats were housed in a controlled environment with a temperature of 20 ± 2 °C, a relative humidity of 55 ± 5%, and a 12-hour light/dark cycle. They were provided ad libitum access to food and water. To minimize stress associated with transportation, animals underwent a one-week acclimatization period before the start of the experiments. All experimental procedures were conducted in compliance with the guidelines of the National Institutes of Health for the care and use of laboratory animals and were approved by the Hallym University Institutional Animal Care and Use Committee (protocol # Hallym 2022-23, approved on July 15, 2022). This manuscript follows the principles outlined in the Animal research: reporting in vivo experiments (ARRIVE) guidelines.
A controlled cortical impact (CCI) model was used to induce TBI in rats. Animals were anesthetized with 1-1.5% isoflurane in a 30:70 oxygen-to-nitrous oxide mixture and securely positioned in a stereotaxic frame. A 3 mm craniotomy was performed using a portable drill at a site 2.8 mm lateral to the midline and 3.0 mm posterior to Bregma. TBI was induced using an Impact One™ Stereotaxic Impactor (Leica Biosystems) equipped with a 3 mm flat-tip, set to deliver an impact at a velocity of 5 m/s and a depth of 3 mm. Throughout the procedure, body temperature was maintained at 36-37.5°C using a homeothermic blanket system to prevent hypothermia. […] At designated time points (3 hours, 24 hours, or 2 weeks post-injury), animals were euthanized via transcardial perfusion with saline, followed by 4% paraformaldehyde (PFA). Brains were post-fixed in 4% PFA for 1 hour, cryoprotected in 30% sucrose, and sectioned at a 30 μm thickness using a cryostat microtome (CM1850; Leica, Wetzlar, Germany). Brain sections were stored in cryoprotectant solution at 4°C until further analysis.
Brain tissues were initially treated with 1.2% hydrogen peroxide at room temperature for 15 minutes to block endogenous peroxidase activity. Following this step, the tissues were washed three times in PBS for 10 minutes each. The tissues and fixed primary neurons were incubated overnight at 4°C with primary antibodies diluted in antibody diluent. […]. After incubation with primary antibodies, tissues were washed in PBS and incubated for 2 hours at room temperature on a shaker with fluorescent-conjugated secondary antibodies (1:250, Invitrogen). All samples were counterstained with DAPI (1:1000, Invitrogen) to visualize cell nuclei. The stained tissues were mounted on gelatin-coated slides, air-dried, and coverslipped using DPX mounting medium. To evaluate the fluorescent signals of labeled proteins, observations were performed using a Zeiss LSM 710 confocal microscope (Carl Zeiss) with sequential scanning mode for DAPI and Alexa 488 and 594. Stacks of images (1024 × 1024 pixels) from consecutive slices of 0.5-0.8 μm in thickness were obtained by averaging fifteen scans per slice, processed using ZEN 2 (blue edition, Carl Zeiss).

[4] = system: primary hippocampal neurons; assay: Scratch injury: MAP2 / NeuN immunocytochemistry; format: cell-based, rat; settings: scratched neurons, 24 hours after scratch
Protocol: Primary hippocampal neurons were obtained from embryonic day 18 (E18) Sprague-Dawley rat embryos. Pregnant rats were anesthetized using 2-3% isoflurane in a gas mixture of 70% nitrous oxide and 30% oxygen. Following euthanasia, the hippocampi were carefully dissected, minced, and enzymatically dissociated using TrypLE Express (Gibco, NY, USA) for 10 minutes at 37°C. The tissue was further mechanically dissociated using fire-polished glass pipettes, and the resulting cell suspension was filtered through a 70 μm cell strainer to remove debris. Neurons were seeded at a density of 3 × 10^5 cells per well in 24-well plates pre-coated with poly-L-lysine (Sigma-Aldrich, Saint Louis, MO, USA). Cells were maintained in neurobasal medium supplemented with B-27 (Thermo Fisher Scientific, Waltham, MA, USA), GlutaMAX (Gibco), and penicillin-streptomycin. The cultures were incubated at 37.5°C in a humidified atmosphere containing 5% CO₂. After seven days of growth, neurons were fixed with 4% paraformaldehyde (PFA) for 15 minutes at room temperature and subsequently stored at 4°C until their further use for immunostaining.
A scratch injury model was used to mimic TBI in vitro. […] After the treatment period, neuronal damage and recovery were assessed using appropriate evaluation methods. […]

[5] = system: hippocampus of TBI rats; assay: Controlled cortical impact TBI: NeuN immunohistochemistry; format: in vivo, rat; settings: CA1, CA3, GCL, hilus, 2 weeks post-TBI, vs TBI-vehicle
Protocol: as §1
A controlled cortical impact (CCI) model was used to induce TBI in rats. Animals were anesthetized with 1-1.5% isoflurane in a 30:70 oxygen-to-nitrous oxide mixture and securely positioned in a stereotaxic frame. A 3 mm craniotomy was performed using a portable drill at a site 2.8 mm lateral to the midline and 3.0 mm posterior to Bregma. […]

[6] = system: activated microglia and astrocytes (Iba1, GFAP); settings: post-seizure AMX treatment; cited from earlier work
[7] = hippocampal regions, 24 hours after TBI
[8] = hippocampus, 24 hours after TBI

**Q.** For `CC(C)c1ccc2oc3nc(N)c(C(=O)O)cc3c(=O)c2c1` [AMX, amlexanox], which “intracellular cAMP levels” value [1] is on record?
**A.** significantly increased intracellular cAMP levels

**Q.** And the cell viability [2]?
**A.** substantially improved cell viability

**Q.** And the “hippocampal PDE4 expression (immunofluorescence)” value ([3]; 3 hours post-TBI)?
**A.** markedly reduced PDE4 expression

**Q.** What about the “4HNE staining (lipid peroxidation)” value [3, 7] of the same compound?
**A.** significantly reduced 4HNE staining

**Q.** And the “CD86 staining (M1 polarization)” value [3, 7]?
**A.** decreased Iba-1 and CD86 staining

**Q.** And the “Iba-1 staining (microglial activation)” value [3, 7]?
**A.** decreased Iba-1 and CD86 staining

**Q.** What about the “p-p38 levels (immunofluorescence)” value ([3]; hippocampal regions, 24 hours post-TBI, vs TBI-vehicle) of the same compound?
**A.** significantly reduced p-p38 levels

**Q.** What about the C3 intensity [3, 8] of the same compound?
**A.** lower GFAP and C3 intensity

**Q.** What about the “GFAP intensity (astrocytic activation)” value [3, 8] of the same compound?
**A.** lower GFAP and C3 intensity

**Q.** And the “MAP2 fluorescence intensity (dendritic loss)” value [4]?
**A.** Increased MAP2 fluorescence intensity

**Q.** And the “number of NeuN-positive neurons” value [4]?
**A.** significantly higher

**Q.** What about the NeuN-positive cell counts [5] of the same compound?
**A.** higher NeuN-positive cell counts

**Q.** And the “activated microglia and astrocytes (Iba1, GFAP)” value [6]?
**A.** markedly decreased activated microglia and astrocytes
